Measured values published in the supplement of paper PMC10307832.

Legend:
Assay in all cases: relative viability (nuclei count vs DMSO), 5 days (fraction); higher = more cells survive
KN-93 = compound: CN(C/C=C/C1=CC=C(C=C1)Cl)CC2=CC=CC=C2N(CCO)S(=O)(=O)C3=CC=C(C=C3)OC [KN-93]
In short: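 Lung cancer cell lines in 1536-well plates were kept overnight at 37 °C, then pinned with five library-drug doses (not always all listed) spaced by √10 on vehicle-anchored plates. After 5 days without medium change, cells were fixed, permeabilised and Hoechst-stained in one step, imaged at 4×, and nuclei were counted with MetaXpress. Viability is treated-well nuclei divided by vehicle-well nuclei, taken as the median over plates. Plates passed only with control CV below 25% and at least one doubling.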

KN-93 + Luminespib = compound: CN(C/C=C/C1=CC=C(C=C1)Cl)CC2=CC=CC=C2N(CCO)S(=O)(=O)C3=CC=C(C=C3)OC [KN-93] + CCNC(=O)c1noc(-c2cc(C(C)C)c(O)cc2O)c1-c1ccc(CN2CCOCC2)cc1 [Luminespib] (partner 0.01 µM)
In short: (§1)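 Dosing by pin tool came one day after lung cancer cell lines were seeded in 1536-well plates, using either one drug or a fixed anchor-drug dose plus five library-drug doses (not always all listed) in √10 steps. After 5 days, nuclei were counted on 4× images. Relative viability is treated-well nuclei count divided by vehicle-well nuclei count, and values are medians of duplicate plates.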

KN-93 + Crizotinib = compound: CN(C/C=C/C1=CC=C(C=C1)Cl)CC2=CC=CC=C2N(CCO)S(=O)(=O)C3=CC=C(C=C3)OC [KN-93] + C[C@@H](Oc1cc(-c2cnn(C3CCNCC3)c2)cnc1N)c1c(Cl)ccc(F)c1Cl [Crizotinib] (partner 1 µM)
In short: as §1

KN-93 + Linsitinib = compound: CN(C/C=C/C1=CC=C(C=C1)Cl)CC2=CC=CC=C2N(CCO)S(=O)(=O)C3=CC=C(C=C3)OC [KN-93] + C[C@]1(O)C[C@@H](c2nc(-c3ccc4ccc(-c5ccccc5)nc4c3)c3c(N)nccn32)C1 [Linsitinib] (partner 1 µM)
In short: as §1

KN-93 + Vorinostat = compound: CN(C/C=C/C1=CC=C(C=C1)Cl)CC2=CC=CC=C2N(CCO)S(=O)(=O)C3=CC=C(C=C3)OC [KN-93] + O=C(CCCCCCC(=O)Nc1ccccc1)NO [Vorinostat] (partner 1 µM)
In short: as §1

| Cell Line | relative viability (KN-93; 0.08 µM) | relative viability (KN-93; 0.253 µM) | relative viability (KN-93; 2.53 µM) | relative viability (KN-93; 8 µM) | relative viability (KN-93 + Luminespib; first compound 0.08 µM) | relative viability (KN-93 + Luminespib; first compound 0.253 µM) | relative viability (KN-93 + Luminespib; first compound 2.53 µM) | relative viability (KN-93 + Luminespib; first compound 8 µM) | relative viability (KN-93 + Crizotinib; first compound 0.08 µM) | relative viability (KN-93 + Crizotinib; first compound 0.253 µM) | relative viability (KN-93 + Crizotinib; first compound 2.53 µM) | relative viability (KN-93 + Crizotinib; first compound 8 µM) | relative viability (KN-93 + Linsitinib; first compound 0.08 µM) | relative viability (KN-93 + Linsitinib; first compound 0.253 µM) | relative viability (KN-93 + Linsitinib; first compound 2.53 µM) | relative viability (KN-93 + Linsitinib; first compound 8 µM) | relative viability (KN-93 + Vorinostat; first compound 0.08 µM) | relative viability (KN-93 + Vorinostat; first compound 0.253 µM) | relative viability (KN-93 + Vorinostat; first compound 2.53 µM) | relative viability (KN-93 + Vorinostat; first compound 8 µM) |
| --- | --- | --- | --- | --- | --- | --- | --- | --- | --- | --- | --- | --- | --- | --- | --- | --- | --- | --- | --- | --- |
| NCI-H1355 | 0.834 | 0.891 | 1.06 | 0.724 | 0.616 | 0.636 | 0.574 | 0.552 | 0.915 | 1.11 | 1.15 | 0.837 | 0.732 | 0.769 | 0.805 | 0.699 | 0.685 | 0.516 | 0.739 | 0.578 |
| NCI-H1437 | 1.03 | 1.09 | 0.895 | 0.584 | 0.999 | 1.3 | 0.907 | 0.559 | 0.851 | 1.27 | 0.894 | 0.47 | 0.879 | 1.41 | 1.04 | 0.487 | 0.608 | 0.854 | 0.529 | 0.324 |
| NCI-H1651 | 0.932 | 1.07 | 1.09 | 0.865 | 0.757 | 0.829 | 0.757 | 0.546 | 0.846 | 0.959 | 0.9 | 0.732 | 0.816 | 1.33 | 1.11 | 0.622 | 0.517 | 0.607 | 0.601 | 0.528 |
| NCI-H1666 | 0.969 | 0.921 | 0.995 | 0.875 | 0.946 | 1.13 | 1.1 | 0.941 | 0.939 | 0.837 | 0.998 | 0.626 | 0.837 | 0.672 | 1.11 | 0.588 | 1.07 | 1.1 | 1.04 | 1.06 |
| NCI-H1734 | 0.942 | 1.15 | 1.14 | 0.668 | 0.167 | 0.17 | 0.181 | 0.179 | 0.646 | 0.752 | 0.74 | 0.421 | 0.855 | 0.949 | 1.03 | 0.734 | 0.808 | 0.837 | 0.944 | 0.576 |
| NCI-H1755 | 0.915 | 1.03 | 1.03 | 0.758 | 0.457 | 0.436 | 0.285 | 0.221 | 0.86 | 1.14 | 0.903 | 0.566 | 1.01 | 1.05 | 1.05 | 0.837 | 0.844 | 0.835 | 0.856 | 0.511 |
| NCI-H1915 | 0.952 | 1.24 | 0.993 | 0.947 | 0.567 | 1.47 | 0.846 | 0.748 | 0.705 | 1.35 | 0.953 | 0.859 | 1.03 | 1.16 | 1.12 | 1.03 | 0.496 | 0.607 | 0.608 | 0.491 |
| NCI-H1944 | 0.885 | 0.885 | 0.942 | 0.803 | 0.741 | 0.699 | 0.729 | 0.43 | 1.24 | 1.24 | 1.18 | 0.953 | 1.29 | 1.21 | 1.11 | 1.02 | 0.502 | 0.627 | 0.522 | 0.249 |
| NCI-H1975 | 0.886 | 0.942 | 0.945 | 0.706 | 0.187 | 0.241 | 0.164 | 0.135 | 0.721 | 1.2 | 0.875 | 0.581 | 0.789 | 0.943 | 0.992 | 0.546 | 0.614 | 0.812 | 0.728 | 0.452 |
| NCI-H1993 | 0.973 | 0.921 | 1.04 | 0.772 | 0.677 | 0.756 | 0.929 | 0.638 | 0.968 | 0.814 | 0.76 | 0.727 | 0.728 | 0.633 | 0.837 | 0.655 | 0.659 | 0.711 | 0.742 | 0.702 |
| NCI-H2009 | 1.01 | 1.05 | 0.922 | 0.603 | 1.05 | 1.11 | 1.08 | 0.746 | 1.18 | 1.1 | 1.04 | 0.474 | 1.16 | 1.24 | 1.17 | 0.94 | 0.716 | 0.679 | 0.637 | 0.447 |
| NCI-H2023 | 0.906 | 1.01 | 1.08 | 0.534 | 0.693 | 0.703 | 0.872 | 0.358 | 0.795 | 0.855 | 0.745 | 0.439 | 0.613 | 0.669 | 0.657 | 0.532 | 0.636 | 0.67 | 0.763 | 0.551 |
| NCI-H2085 | 0.951 | 1.01 | 1.05 | 0.81 | 0.441 | 0.371 | 0.441 | 0.356 | 0.815 | 1.17 | 0.921 | 0.565 | 0.782 | 0.967 | 0.929 | 0.633 | 0.791 | 0.747 | 0.747 | 0.578 |
| NCI-H2087 | 0.788 | 1.13 | 1.12 | 0.533 | 0.16 | 0.182 | 0.184 | 0.133 | 0.678 | 1.01 | 0.84 | 0.55 | 0.941 | 0.905 | 0.824 | 0.43 | 0.707 | 0.963 | 0.861 | 0.54 |
| NCI-H2126 | 0.96 | 0.887 | 1.08 | 0.902 | 1.03 | 0.984 | 0.941 | 0.708 | 1.04 | 1.14 | 1.07 | 0.981 | 0.785 | 0.673 | 0.713 | 0.683 | 0.782 | 0.83 | 0.727 | 0.704 |
